{
  "source": "patent US20240382564A1",
  "about": "“Methods and Compositions for Treating Muscular Dystrophy and Memory Impairment” (Allysta Pharmaceuticals, Inc., priority 2023, published 2024)",
  "format_in_all_cases": "in vivo, mouse",
  "key": {"[1]": {"system": "D2.mdx mice", "assay": "In-situ quadriceps force", "description": "D2.mdx mice were treated with ALY688 at two different dosages; high dose (HD; 15 mg/kg body weight/day) or low dose (LD; 3 mg/kg body weight/day) dissolved in saline. A separate group of mice were treated with saline alone (VEH, vehicle). Treatment was provided via subscapular subcutaneous injections from 7 days of age to 28-30 days. […] At 28-30 days of age, mice were anaesthetized with isoflurane vaporized in medical air (21% oxygen) at a 2 L/min flow rate. Due to tissue limitations in limb muscle, certain measures were performed separately in tibialis anterior and quadriceps across several phases of breeding. […]\nBody temperature was maintained using an overhead heat lamp. […] Optimal resting length (L0) was determined using single twitches (pulse width=0.2 ms) at varying muscle lengths at the maximal stimulation current. Force was assessed across increasing frequencies (1, 40, 60, 80, 100, 120 Hz) using a biphasic stimulator (Model 710B, Aurora Scientific, Inc., ON, Canada), with one minute rest between each frequency. […] Recovery from fatigue was assessed 5, 10 and 15 minutes after the last contraction of the fatigue protocol at the frequency that elicited max force. Data were analyzed using Dynamic Muscle Control Data Acquisition software (Aurora Scientific, Inc) and normalized to quadriceps weight in mg."}, "[2]": {"system": "D2.mdx mice", "assay": "Serum cytokine profiling (LEGENDplex)", "description": "(§1) Male D2.mdx mice originated from a colony maintained at York University (Toronto, Canada) and sourced from Jackson Laboratories (Stock Number 013141, Bar Harbor, United States). Mice were treated daily from days 7 to 28 of age with ALY688 at 15 mg/kg b.w. (D2.mdx-ALY688) or saline control (D2.mdx-VEH). This age was chosen given it captures an early stage of disease progression in cardiac and skeletal muscle. Mice were sacrificed 20-24 hr after the last dose. Breeding of wildtype mice was unsuccessful. Instead, three-week-old wildtype DBA/2J WT mice (D2A) were obtained from Jackson Laboratories (Stock number 000671, Bar Harbor, United States) and allowed to acclimatize for one week before sacrifice. Mice were housed in standard 12:12-hr light:dark cycles and were allowed access to standard rodent chow and water ad libitum. 4 days prior to sacrifice, all groups underwent novel object recognition acclimatization and testing as described below. Mice were anesthetized under 5% isoflurane vaporized in medical air (21% oxygen) at a flow rate of 2 L/min and then maintained at 2-3% prior to euthanasia by exsanguination. Muscles were removed and used for another investigation (under review at the time of this submission). The right and left hippocampus were then quickly dissected from the brain with a portion placed immediately into ice-cold BIOPS, containing (in mM): 50 MES Hydrate, 7.23 K2EGTA, 2.77 CaK2EGTA, 20 imidazole, 0.5 dithiothreitol, 20 taurine, 5.77 ATP, 15 PCr, and 6.56 MgCl2·6H2O (pH 7.1) or flash-frozen in liquid nitrogen and stored at −80° C. for RNA isolation and western blotting. All experiments and procedures were approved by the Animal Care Committee at York University (AUP Approval Number 2016-18) in accordance with the Canadian Council on Animal Care.\nProtein contents of TGF-β, TNF-α, IL-1β, IL-6 and IL-10 in serum were measured by flow cytometry using LEGENDplex™ Mouse Custom Panel (BioLegend; San Diego, CA, USA). […] The FCS files generated on the flow cytometer were analyzed using the LEGENDplex™ cloud-based analysis software."}, "[3]": {"system": "D2.mdx mice", "assay": "Hippocampal western blotting", "settings": "hippocampus", "description": "as §1\nHippocampus tissue (collected from the same mice utilized in high-resolution respirometry experiments) was homogenized in cold lysis buffer containing (in mM; 20 Tris/HCl, 150 NaCl, 1 EDTA, 1 EGTA, 1% Triton X-100, 2.5 Na4O7P2, 1 Na3VO4, pH 7.0) supplemented with protease and phosphatase inhibitors (Sigma) according to the protocol established in Hughes MC et al. “Early myopathy in Duchenne muscular dystrophy is associated with elevated mitochondrial H2O2 emission during impaired oxidative phosphorylation.” Journal of Cachexia, Sarcopenia and Muscle. 2019; 10:643-61. […] For detection of total AMPK, p-AMPK, p-ULK1, p62, and LC3BII/I, proteins were transferred to a 0.2 μm low fluorescence polyvinylidene difluoride membrane using a Bio-Rad Trans Blot Turbo. […] The same washing protocol was repeated and then membranes were detected using infrared imaging (LI-COR CLx; LI-COR, Lincoln, NE, USA) and quantified by densitometry (ImageJ, http://imagej.nih.gov/ij/). […]"}},
  "note": "Where no end group is shown, it is not given here. [ ]: non-standard residue; d: D form. Nva = CCC[C@H](N)C(=O)O",
  "data": [
    {"substance": "[dN]IP[Nva]LY[dS]FA[dS]-NH2 [ALY688]", "values": [
      {"measurement": "muscle force production", "setting": "[1]; both doses", "value": "no effect"},
      {"measurement": "recovery from fatigue, change", "setting": "[1]; low dose, printed range also covers diaphragm high dose", "value": "−5.3% to −50.9"},
      {"measurement": "serum IL-1β", "setting": "[2]; relative to D2.mdx-VEH", "value": "increased"},
      {"measurement": "serum IL-6", "setting": "[2]; vs D2.mdx-VEH", "value": "attenuated"},
      {"measurement": "serum IL-10", "setting": "[2]; vs wildtype", "value": "increasing"},
      {"measurement": "degree of AMPK activation (p-AMPK or p-AMPK/AMPK)", "setting": "[3]", "value": "not altered"},
      {"measurement": "total AMPK protein", "setting": "[3]", "value": "lower"},
      {"measurement": "protein content of total raptor", "setting": "[3]; increased in D2.mdx vs WT", "value": "completely prevented the increases"},
      {"measurement": "protein content of total tau", "setting": "[3]; increased in D2.mdx vs WT", "value": "completely prevented the increases"}
    ]}
  ]
}
